Measured values as given in PMC11154709, “4S-fluorination of ProB29 in insulin lispro slows fibril formation” (The Journal of Biological Chemistry, 2024).

What was measured:
diabetic mice = assay: Reduction of blood glucose in diabetic mice; type: in vivo; conditions: 5 to 10% of the standard injection (3.5 and 1.75 mg kg-1 as printed in SI), commercial Humalog, subcutaneous, STZ-diabetic male NODscid mice 15-18 week old; mean ± SD of 4 biological replicates (Fig. S2)
Description: To verify bioactivity, lispro variants were injected subcutaneously into diabetic mice, and blood glucose was monitored over 2.5 h. Mouse models allow determination of activity but not time to onset of action ([27]). […] As expected, all lispro variants retained activity (Fig. 2A).
Figure 2 Biological activity and CD spectroscopy of lispro variants.A, lispros were injected subcutaneously into diabetic mice, and blood glucose was measured over time after injection. The data presented here represent the mean ± SD of 3 to 6 biological replicates. B–E, far-UV circular dichroism spectra (60 μM lispro in […] phosphate buffer, pH 8.0). […] 4R-F, 4R-fluoroproline; 4S-F, 4S-fluoroproline.
Experiments were conducted according to procedures approved by the Institutional Animal Care and Use Committee at the City of Hope. Adult (8–12 week old) male NODscid mice (Jackson Laboratory; stock # 001303) were injected intraperitoneally for three consecutive days with freshly prepared streptozotocin (45 mg kg^−1 body weight, suspended in 100 mM sodium citrate buffer, pH 4.5); diabetes was confirmed by the detection of high glucose levels (200–600 mg dL^−1) as measured by a glucomonitor (Freestyle, Abbott Diabetes Care). […] Blood glucose was measured from blood sampled from the lateral tail vein. […]
into the matrix solution (α -cyanohydroxycinnamic acid in 50% ACN, 0.1% TFA) and analyzed by […]

[1] = target: reversible monomer-dimer equilibrium; conditions: read-out: Kd (monomer-dimer), previously reported; cited from earlier work
Description: The secondary structure of each insulin lispro variant was probed by circular dichroism spectroscopy. […] All lispro samples were further analyzed by analytical ultracentrifuga ...

[2] = cited from earlier work
Description: Removal of the constrained pyrrolidine ring of proline at position B28 grants additional conformational degrees of freedom and removes hydrophobic packing interactions at the dimer interface. […] However, the standard mutagenesis approach employed in the discovery of insulin lispro ([7]) (and other FDA-app ...

insulin lispro: fast-acting insulin with inversion of the residues ProB28 and LysB29; Humalog, Eli Lilly [reference compound]
reduction of blood glucose at lower lispro doses (diabetic mice): did not similarly reduce blood glucose in diabetic mice
Kd [1]: 1100 µM
absorption [2]: accelerate absorption
